Counter-ions that a name gives are not always drawn. Like-named read-outs stand apart in the source and are kept apart here.
Legend:
[1] = target: T1, SARS-CoV-2 PLpro (nsp3 1564–1878) (Severe acute respiratory syndrome coronavirus 2, UniProt P0DTD1); experiment: biochemical; set-up: FRET-quenched peptide (Pro3) cleavage by PLpro, 10 min pre-incubation, slope over 20 min, normalised to no-compound control; conditions: low concentration screen, read-out: % of control remaining
[2] = target: T1, SARS-CoV-2 PLpro (nsp3 1564–1878); experiment: biochemical; set-up: FRET-quenched peptide (Pro3) cleavage by PLpro, 10 min pre-incubation, slope over 20 min, normalised to no-compound control; conditions: high concentration screen, read-out: % of control remaining

In the case of `COC(=O)C[C@](O)(CCC(C)(C)O)C(=O)O[C@@H]1C(OC)=C[C@]23CCCN2CCc2cc4c(cc2[C@H]13)OCO4` [Harringtonine], the remaining activity at 1.25 µM ([1]; Well no.=3615) is reported as 105% and the remaining activity at 3.75 µM ([2]; Well no.=3615) is reported as 103%.
In the case of `CO[C@H](C)[C@](O)(C(=O)OCC1=CCN2CC[C@H](O)[C@@H]12)C(C)C` [Heliotrine], the remaining activity at 1.25 µM ([1]; Well no.=3149) is reported as 101% and the remaining activity at 3.75 µM ([2]; Well no.=3149) is reported as 104%.
With `C[N+]1(C)CCO[C@@](O)(c2ccc(-c3ccc([C@@]4(O)C[N+](C)(C)CCO4)cc3)cc2)C1` [Hemicholinium-3] the remaining activity at 1.25 µM ([1]; Well no.=474) was 97.1% and the remaining activity at 3.75 µM ([2]; Well no.=474) was 95.2%.
Work on `CCCCCCCCCCCCCCCCCCCCC(=O)O` [Heneicosanoic acid] yielded a remaining activity at 1.25 µM ([1]; Well no.=4450) of 101% and a remaining activity at 3.75 µM ([2]; Well no.=4450) of 101%.
With `CCCCC/C=C\C[C@@H]1O[C@H]1/C=C/C(O)C/C=C\CCCC(=O)O` (some centres unmarked) [Hepoxilin A3] the remaining activity at 1.25 µM ([1]; Well no.=4339) was 107% and the remaining activity at 3.75 µM ([2]; Well no.=4339) was 106%.
With `CCCCC/C=C\C[C@@H]1O[C@H]1C(O)/C=C\C/C=C\CCCC(=O)O` (some centres unmarked) [Hepoxilin B3] the remaining activity at 1.25 µM ([1]; Well no.=4341) was 97.9% and the remaining activity at 3.75 µM ([2]; Well no.=4341) was 96.6%.
Work on `CCCCCCCCCCCCCCCCC(=O)O` [Heptadecanoic acid] yielded a remaining activity at 1.25 µM ([1]; Well no.=4308) of 106% and a remaining activity at 3.75 µM ([2]; Well no.=4308) of 101%.
Compound `CO[C@H]1[C@@H](OC)C[C@H](C)[C@@H](OC)C2=CC(=O)C=C(NC(=O)/C(C)=C/C=C\[C@H](OC)[C@@H](OC(N)=O)/C(C)=C/[C@@H]1C)C2=O` [Herbimycin A, Streptomyces sp.] has a remaining activity at 1.25 µM ([1]; Well no.=2419) of 104% and a remaining activity at 3.75 µM ([2]; Well no.=2419) of 111%.
For `COc1ccc2cc1Oc1ccc(cc1)C[C@H]1c3cc(c(OC)cc3CCN1C)Oc1c(OC)c(OC)c(OC)c3c1[C@H](C2)N(C)CC3` [Hernandezine], the remaining activity at 1.25 µM ([1]; Well no.=3151) was 100% and the remaining activity at 3.75 µM ([2]; Well no.=3151) was 101%.
For `CCS(=O)(=O)Nc1ccc2c(c1)/C(=C(/Nc1ccc(CN3CCCCC3)cc1)c1ccccc1)C(=O)N2` [Hesperadin], the remaining activity at 1.25 µM ([1]; Well no.=5262) was 99.1% and the remaining activity at 3.75 µM ([2]; Well no.=5262) was 88.4%.
For `COc1ccc([C@@H]2CC(=O)c3c(O)cc(O)cc3O2)cc1O` [Hesperetin], the remaining activity at 1.25 µM ([1]; Well no.=6630) was 103% and the remaining activity at 3.75 µM ([2]; Well no.=6630) was 104%.
`CCN1C[C@]2(C)CC[C@H](OC)[C@]34C1[C@H]([C@@H](O)[C@H]23)[C@@]1(O)CC[C@H]2C[C@@H]4[C@@H]1C(=O)O2` [Heteratisine] gave a remaining activity at 1.25 µM ([1]; Well no.=3153) of 102% and a remaining activity at 3.75 µM ([2]; Well no.=3153) of 105%.
`N[C@@H](Cc1cnc[nH]1)C(=O)N[C@@H](Cc1cnc[nH]1)C(=O)N[C@@H](Cc1cnc[nH]1)C(=O)N[C@@H](Cc1cnc[nH]1)C(=O)N[C@@H](Cc1cnc[nH]1)C(=O)N[C@@H](Cc1cnc[nH]1)C(=O)O` [Hexa-His] gave a remaining activity at 1.25 µM ([1]; Well no.=8312) of 94.5% and a remaining activity at 3.75 µM ([2]; Well no.=8312) of 96.4%.
`O=C(O)CCCCCCCCCCCCCCC(=O)O` [Hexadecanedioic acid] gave a remaining activity at 1.25 µM ([1]; Well no.=6685) of 104% and a remaining activity at 3.75 µM ([2]; Well no.=6685) of 106%.
For `CCCCCCCCCCCCCCCC(=O)O` [Hexadecanoic acid], the remaining activity at 1.25 µM ([1]; Well no.=4302) was 101% and the remaining activity at 3.75 µM ([2]; Well no.=4302) was 97.2%.
`C[N+](C)(C)CCCCCC[N+](C)(C)C` [Hexamethonium bromide] gave a remaining activity at 1.25 µM ([1]; Well no.=702) of 98.3% and a remaining activity at 3.75 µM ([2]; Well no.=702) of 100%.
With `C[N+](C)(C)CCCCCC[N+](C)(C)C` [Hexamethonium dichloride] the remaining activity at 1.25 µM ([1]; Well no.=656) was 90.7% and the remaining activity at 3.75 µM ([2]; Well no.=656) was 89.9%.
`CC[C@H](c1ccc(O)cc1)[C@@H](CC)c1ccc(O)cc1` [Hexestrol] showed a remaining activity at 1.25 µM ([1]; Well no.=2182) of 99.9% and a remaining activity at 3.75 µM ([2]; Well no.=2182) of 100%.
Work on `C[C@@H]1OC(=O)[C@H]2C[C@H]3CCCC[C@@H]3[C@@H](/C=C/[C@H]3CCC[C@H](C)N3C)[C@@H]12` [Himbacine] yielded a remaining activity at 1.25 µM ([1]; Well no.=3329) of 99% and a remaining activity at 3.75 µM ([2]; Well no.=3329) of 98.7%.
With `CC(C)c1cccc(=O)c(O)c1` [Hinokitiol] the remaining activity at 1.25 µM ([1]; Well no.=3893) was 105% and the remaining activity at 3.75 µM ([2]; Well no.=3893) was 103%.
Work on `O=C(O)CNC(=O)c1ccccc1` [Hippuric acid] yielded a remaining activity at 1.25 µM ([1]; Well no.=7309) of 109% and a remaining activity at 3.75 µM ([2]; Well no.=7309) of 106%.
Compound `O=c1cc(O)cc(/C=C/c2ccc(O)c(O)c2)o1` [Hispidin] has a remaining activity at 1.25 µM ([1]; Well no.=754) of 98.7% and a remaining activity at 3.75 µM ([2]; Well no.=754) of 96.8%.
`O=C1/C(=C/c2ccc(O)cc2)Oc2cc(O)ccc21` [Hispidol] showed a remaining activity at 1.25 µM ([1]; Well no.=6966) of 95.6% and a remaining activity at 3.75 µM ([2]; Well no.=6966) of 93%.
`NCCc1c[nH]cn1` [Histamine (phosphate)] gave a remaining activity at 1.25 µM ([1]; Well no.=6717) of 95.8% and a remaining activity at 3.75 µM ([2]; Well no.=6717) of 91.6%.
`NCCc1c[nH]cn1` [Histamine dihydrochloride] was tested, and the remaining activity at 1.25 µM ([1]; Well no.=564) was 103% and the remaining activity at 3.75 µM ([2]; Well no.=564) was 101%.
`NCCc1c[nH]cn1` [Histamine] gave a remaining activity at 1.25 µM ([1]; Well no.=6665) of 105%, a remaining activity at 1.25 µM ([1]; Well no.=7059) of 102% and a remaining activity at 3.75 µM ([2]; Well no.=6665) of 103%. The remaining activity at 3.75 µM ([2]; Well no.=7059) was 109%.
Work on `C[N+]1(C)[C@@H]2CC[C@H]1C[C@@H](OC(=O)C(O)c1ccccc1)C2` (some centres unmarked) [Homatropine (methylbromide)] yielded a remaining activity at 1.25 µM ([1]; Well no.=7379) of 94.7% and a remaining activity at 3.75 µM ([2]; Well no.=7379) of 96%.
`C[N+]1(C)[C@@H]2CC[C@H]1C[C@@H](OC(=O)C(O)c1ccccc1)C2` (some centres unmarked) [Homatropine Methylbromide] gave a remaining activity at 1.25 µM ([1]; Well no.=5080) of 98.2% and a remaining activity at 3.75 µM ([2]; Well no.=5080) of 101%.
Work on `COc1cc(/C=C/C(=O)c2ccc(O)cc2O)ccc1O` [Homobutein] yielded a remaining activity at 1.25 µM ([1]; Well no.=3637) of 99.6% and a remaining activity at 3.75 µM ([2]; Well no.=3637) of 102%.
`COc1cc([C@@H]2CC(=O)c3c(O)cc(O)cc3O2)ccc1O` [Homoeriodictyol] gave a remaining activity at 1.25 µM ([1]; Well no.=3683) of 98.7% and a remaining activity at 3.75 µM ([2]; Well no.=3683) of 98.2%.
For `O=c1cc(-c2ccc(O)c(O)c2)oc2cc(O)c([C@@H]3O[C@H](CO)[C@@H](O)[C@H](O)[C@H]3O)c(O)c12` [Homoorientin], the remaining activity at 1.25 µM ([1]; Well no.=3291) was 95.6% and the remaining activity at 3.75 µM ([2]; Well no.=3291) was 100%.
For `COc1c(O[C@@H]2O[C@H](CO)[C@@H](O)[C@H](O)[C@H]2O)cc2oc(-c3ccc(O)cc3)cc(=O)c2c1O` [Homoplantaginin], the remaining activity at 1.25 µM ([1]; Well no.=6446) was 94.1% and the remaining activity at 3.75 µM ([2]; Well no.=6446) was 95.8%.
Work on `COc1cc(CC(=O)O)ccc1O` [Homovanillic acid] yielded a remaining activity at 1.25 µM ([1]; Well no.=6831) of 96.9% and a remaining activity at 3.75 µM ([2]; Well no.=6831) of 97%.
`C=CCc1ccc(O)c(-c2ccc(O)c(CC=C)c2)c1` [Honokiol] gave a remaining activity at 1.25 µM ([1]; Well no.=3621) of 97.6% and a remaining activity at 3.75 µM ([2]; Well no.=3621) of 93.8%.
`CN(C)CCc1ccc(O)cc1` [Hordenine sulfate] gave a remaining activity at 1.25 µM ([1]; Well no.=3106) of 97.9% and a remaining activity at 3.75 µM ([2]; Well no.=3106) of 100%.
`NNc1nncc2ccccc12` [Hydralazine hydrochloride] was tested, and the remaining activity at 1.25 µM ([1]; Well no.=560) was 95.6% and the remaining activity at 3.75 µM ([2]; Well no.=560) was 95.5%.

Reference: PMC8286840, “Identifying SARS-CoV-2 antiviral compounds by screening for small molecule inhibitors of Nsp3 papain-like protease” (Biochemical Journal, 2021)
